Laboratory results as given in ChEMBL document CHEMBL1152405, “Bis-anthracenyl isoxazolyl amides have enhanced anticancer activity” (Bioorg Med Chem Lett, 2009).

Columns and labels:
[1] = tested on: SN12C; assay: Growth inhibition of human SN12C cells after 24 hrs by MTT assay; type: functional
[2] = tested on: NCI/ADR-RES; assay: Growth inhibition of human NCI/ADR-RES cells after 24 hrs by MTT assay; type: functional
[3] = tested on: TK-10; assay: Growth inhibition of human TK10 cells after 24 hrs by MTT assay; type: functional; settings: TK-10, 24 h
[4] = tested on: MCF7; assay: Growth inhibition of human MCF7 cells after 24 hrs by MTT assay; type: functional; settings: MCF7, 24 h
[5] = tested on: HL-60(TB); assay: Growth inhibition of human HL-60(TB) cells after 24 hrs by MTT assay; type: functional; settings: HL-60, 24 h
[6] = tested on: K562; assay: Growth inhibition of human K562 cells at 10 uM after 24 hrs by MTT assay relative to control; type: functional; parameters: scale not given: the % may be the effect or the level left
[7] = tested on: A498; assay: Growth inhibition of human A498 cells at 10 uM after 24 hrs by MTT assay relative to control; type: functional; parameters: scale not given: the % may be the effect or the level left
[8] = tested on: SK-OV-3; assay: Growth inhibition of human SKOV3 cells after 24 hrs by MTT assay; type: functional; settings: SK-OV-3, 24 h
[9] = tested on: SNB-19; assay: Antitumor activity against human SNB19 cells after 24 hrs; type: functional, cell-based; settings: SNB-19, 24 h
[10] = tested on: NCI-H322M; assay: Growth inhibition of human NCI-H322M cells at 10 uM after 24 hrs by MTT assay relative to control; type: functional; parameters: scale not given: the % may be the effect or the level left
[11] = tested on: MDA-MB-468; assay: Growth inhibition of human MDA-MB-468 cells after 24 hrs by MTT assay; type: functional; settings: MDA-MB-468, 24 h
[12] = tested on: NCI-H322M; assay: Growth inhibition of human NCI-H322M cells after 24 hrs by MTT assay; type: functional
[13] = tested on: COLO 205; assay: Growth inhibition of human COLO205 cells at 10 uM after 24 hrs by MTT assay relative to control; type: functional; parameters: scale not given: the % may be the effect or the level left
[14] = tested on: MDA-MB-231; assay: Growth inhibition of human MDA-MB-231 cells after 24 hrs by MTT assay; type: functional; settings: MDA-MB-231, 24 h
[15] = tested on: EKVX; assay: Growth inhibition of human EKVX cells after 24 hrs by MTT assay; type: functional
[16] = tested on: CAKI-1; assay: Growth inhibition of human Caki1 cells after 24 hrs by MTT assay; type: functional; settings: CAKI-1, 24 h
[17] = tested on: T47D; assay: Growth inhibition of human T47D cells after 24 hrs by MTT assay; type: functional
[18] = tested on: SK-MEL-5; assay: Growth inhibition of human SK-MEL-5 cells at 10 uM after 24 hrs by MTT assay relative to control; type: functional; parameters: scale not given: the % may be the effect or the level left
[19] = tested on: A549; assay: Growth inhibition of human A549 cells after 24 hrs by MTT assay; type: functional; settings: A549, 24 h
[20] = tested on: Malme-3M; assay: Growth inhibition of human MALME-3M cells at 10 uM after 24 hrs by MTT assay relative to control; type: functional; parameters: scale not given: the % may be the effect or the level left
[21] = tested on: OVCAR-3; assay: Growth inhibition of human OVCAR-3 cells at 10 uM after 24 hrs by MTT assay relative to control; type: functional; parameters: scale not given: the % may be the effect or the level left
[22] = tested on: NCI/ADR-RES; assay: Growth inhibition of human NCI/ADR-RES cells at 10 uM after 24 hrs by MTT assay relative to control; type: functional; parameters: scale not given: the % may be the effect or the level left
[23] = tested on: A549; assay: Growth inhibition of human A549 cells at 10 uM after 24 hrs by MTT assay relative to control; type: functional; parameters: scale not given: the % may be the effect or the level left
[24] = tested on: IGROV-1; assay: Growth inhibition of human IGROV1 cells after 24 hrs by MTT assay; type: functional; settings: IGROV-1, 24 h
[25] = tested on: HCT-116; assay: Growth inhibition of human HCT116 cells at 10 uM after 24 hrs by MTT assay relative to control; type: functional; parameters: scale not given: the % may be the effect or the level left
[26] = tested on: SR; assay: Growth inhibition of human SR cells after 24 hrs by MTT assay; type: functional
[27] = tested on: SK-MEL-28; assay: Growth inhibition of human SK-MEL-28 cells at 10 uM after 24 hrs by MTT assay relative to control; type: functional; parameters: scale not given: the % may be the effect or the level left
[28] = tested on: OVCAR-5; assay: Growth inhibition of human OVCAR5 cells at 10 uM after 24 hrs by MTT assay relative to control; type: functional; parameters: scale not given: the % may be the effect or the level left
[29] = tested on: NCI-H522; assay: Growth inhibition of human NCI-H522 cells at 10 uM after 24 hrs by MTT assay relative to control; type: functional; parameters: scale not given: the % may be the effect or the level left
[30] = tested on: NCI-H226; assay: Growth inhibition of human NCI-H226 cells after 24 hrs by MTT assay; type: functional; settings: NCI-H226, 24 h
[31] = tested on: OVCAR-5; assay: Growth inhibition of human OVCAR5 cells after 24 hrs by MTT assay; type: functional; settings: OVCAR-5, 24 h
[32] = tested on: OVCAR-3; assay: Growth inhibition of human OVCAR-3 cells after 24 hrs by MTT assay; type: functional; settings: OVCAR-3, 24 h
[33] = tested on: UACC-257; assay: Growth inhibition of human UACC257 cells at 10 uM after 24 hrs by MTT assay relative to control; type: functional; parameters: scale not given: the % may be the effect or the level left
[34] = read-out: LC50 (the source's name)
[35] = read-out: pLC50 (the source's name) (converted)

Structure (SMILES): Cc1onc(-c2c3ccccc3c(Cl)c3ccccc23)c1C(=O)Nc1cc(C(=O)NCCCN(C)CCCNC(=O)c2cc(NC(=O)c3c(-c4c5ccccc5c(Cl)c5ccccc45)noc3C)cn2C)n(C)c1
- TGI [1]: 3.14 µM
- GI50 ([1]; read-out: GI50): 1.65 µM
- GI50 ([1]; read-out: pGI50 (converted)): 1.66 µM
- TGI [2]: > 100 µM
- GI50 ([2]; read-out: GI50): 13.2 µM
- CC50 [2, 34]: 100 µM
- GI50 ([2]; read-out: pGI50 (converted)): 13.2 µM
- CC50 [2, 35]: > 100 µM
- TGI [3]: 4.59 µM
- GI50 ([3]; read-out: GI50): 2.15 µM
- CC50 [3, 34]: 9.77 µM
- GI50 ([3]; read-out: pGI50 (converted)): 2.14 µM
- CC50 [3, 35]: 9.77 µM
- TGI [4]: 2.4 µM
- GI50 ([4]; read-out: GI50): 1.18 µM
- CC50 [4, 34]: 4.9 µM
- GI50 ([4]; read-out: pGI50 (converted)): 1.17 µM
- CC50 [4, 35]: 4.9 µM
- TGI [5]: 8.3 µM
- GI50 ([5]; read-out: GI50): 1.61 µM
- CC50 [5, 34]: 42 µM
- GI50 ([5]; read-out: pGI50 (converted)): 1.62 µM
- CC50 [5, 35]: 41.7 µM
- Activity [6]: -100%
- Activity [7]: 103.19%
- TGI [8]: 2.87 µM
- GI50 ([8]; read-out: GI50): 1.54 µM
- CC50 [8, 34]: 5.36 µM
- GI50 ([8]; read-out: pGI50 (converted)): 1.55 µM
- CC50 [8, 35]: 5.37 µM
- IC50 [9]: 4.75 µM
- Activity [10]: -97.3%
- TGI [11]: 2.78 µM
- GI50 ([11]; read-out: GI50): 1.33 µM
- CC50 [11, 34]: 5.81 µM
- GI50 ([11]; read-out: pGI50 (converted)): 1.32 µM
- CC50 [11, 35]: 5.75 µM
- TGI [12]: 4.87 µM
- GI50 ([12]; read-out: GI50): 2.18 µM
- CC50 [12, 34]: 14.6 µM
- GI50 ([12]; read-out: pGI50 (converted)): 2.19 µM
- CC50 [12, 35]: 14.5 µM
- Activity [13]: -100%
- TGI [14]: 2.76 µM
- GI50 ([14]; read-out: GI50): 1.37 µM
- GI50 ([14]; read-out: pGI50 (converted)): 1.38 µM
- TGI [15]: 5.27 µM
- GI50 ([15]; read-out: GI50): 1.91 µM
- CC50 [15, 34]: 100 µM
- GI50 ([15]; read-out: pGI50 (converted)): 1.91 µM
- CC50 [15, 35]: > 100 µM
- TGI [16]: 5.85 µM
- GI50 ([16]; read-out: GI50): 2.4 µM
- CC50 [16, 34]: 31.3 µM
- GI50 ([16]; read-out: pGI50 (converted)): 2.4 µM
- CC50 [16, 35]: 31.6 µM
- TGI [17]: 5.08 µM
- GI50 ([17]; read-out: GI50): 1.69 µM
- CC50 [17, 34]: 24.5 µM
- GI50 ([17]; read-out: pGI50 (converted)): 1.7 µM
- CC50 [17, 35]: 24.5 µM
- Activity [18]: -100%
- TGI [19]: 2.85 µM
- GI50 ([19]; read-out: GI50): 1.28 µM
- GI50 ([19]; read-out: pGI50 (converted)): 1.29 µM
- Activity [20]: -86.28%
- Activity [21]: -100%
- Activity [22]: 47.82%
- Activity [23]: -59.15%
- TGI [24]: 3.26 µM
- GI50 ([24]; read-out: GI50): 1.43 µM
- CC50 [24, 34]: 7.42 µM
- GI50 ([24]; read-out: pGI50 (converted)): 1.45 µM
- CC50 [24, 35]: 7.41 µM
- Activity [25]: -84.49%
- LC50 [26]: 100 µM
- TGI [26]: 2.03 µM
- GI50 ([26]; read-out: GI50): 0.394 µM
- GI50 ([26]; read-out: pGI50 (converted)): 0.398 µM
- CC50 [26, 35]: > 100 µM
- Activity [27]: -100%
- Activity [28]: -85.02%
- Activity [29]: -85.33%
- TGI [30]: 29.4 µM
- GI50 ([30]; read-out: GI50): 3.15 µM
- CC50 [30, 34]: 100 µM
- GI50 ([30]; read-out: pGI50 (converted)): 3.16 µM
- CC50 [30, 35]: > 100 µM
- TGI [31]: 2.78 µM
- GI50 ([31]; read-out: GI50): 1.47 µM
- CC50 [31, 34]: 5.27 µM
- GI50 ([31]; read-out: pGI50 (converted)): 1.48 µM
- CC50 [31, 35]: 5.25 µM
- TGI [32]: 2.61 µM
- GI50 ([32]; read-out: GI50): 1.31 µM
- CC50 [32, 34]: 5.19 µM
- GI50 ([32]; read-out: pGI50 (converted)): 1.32 µM
- CC50 [32, 35]: 5.13 µM
- Activity [33]: -60.8%
